Values of other authors in patent publication US20070136825A1, “Fusion proteins useful for detecting analytes” (priority 2001, published 2007).
pKd: −log10 of the molar value.

Details: glucose; GGBP alone; Zukin et al.; read-out: Kd Binding protein, glucose

For “GGBP: glucose/galactose binding protein (mglB, E. coli), SEQ ID NO:4”, the pKd is given as 6.68.
